The values below come from patent US8067424B2, “Selective inhibitors for cyclin-dependent kinases” (Emory University, priority 2007, dated 2011).

The structures appear in SMILES notation. Like-named read-outs stand apart in the source and are kept apart here.

What all share (assay type): biochemical
One experiment addresses T1, PKBβ (Homo sapiens, UniProt P31751, S474D).
T1 construct: ΔPH-PKBbeta (S474D) assay: ΔPH-PKBbeta-S474D (5-20 mU diluted)
Kind of experiment: Kinase screen: ΔPH-PKBbeta (S474D) assay. On the procedure: (§1) Generally, the same procedure was used for all assays. Since the total assay volume was 25.5 microliters, 0.5 microliters of inhibitors at 51× assay concentration were added to the plates before any other addition.
(§2) The basic procedure was to add 0.5 microliters inhibitor/control in DMSO to plate. Fifteen microliters of enzyme/substrate/buffer mix were added and incubated for 5 min. Ten microliters MgATP at the relevant concentration were added and incubated for 30 min. The assay was stopped by adding 5 microliters of 3% orthophosphoric acid. The assay was transferred to a p81 filter plate and read in a scintillation counter of 30 sec/well. Note that this assay procedure was not followed for MKK1, which instead involved a two-step assay, and PKC alpha, which required the addition of lipid vesicles.
ΔPH-PKBbeta (S474D) assay: ΔPH-PKBbeta-S474D (5-20 mU diluted in 50 mM Tris pH 7.5, 0.1 mM EGTA, 0.1% b-mercaptoethanol, 1 mg/ml BSA) was assayed against a modified Crosstide peptide ([…]) (SEQ ID NO: 4) in a final volume of 25.5 μl containing 50 mM Tris pH 7.5, 0.05% b-mercaptoethanol, 30 μM substrate peptide, 10 mM magnesium acetate and 0.05 mM [33P-g-ATP] (50-1000 cpm/pmole) and incubated for 30 min at room temperature. Assays were stopped by addition of 5 μl of 0.5 M (3%) orthophosphoric acid and then harvested onto P81 Unifilter plates with a wash buffer of 50 mM orthophosphoric acid.

For the next experiment, the target named is MNK1 (Homo sapiens, UniProt Q9BUB5). Description: Kinase screen: MNK1 assay. On the procedure: as §1, §2
Sequence of MNK1 (Q9BUB5 whole entry, species assumed): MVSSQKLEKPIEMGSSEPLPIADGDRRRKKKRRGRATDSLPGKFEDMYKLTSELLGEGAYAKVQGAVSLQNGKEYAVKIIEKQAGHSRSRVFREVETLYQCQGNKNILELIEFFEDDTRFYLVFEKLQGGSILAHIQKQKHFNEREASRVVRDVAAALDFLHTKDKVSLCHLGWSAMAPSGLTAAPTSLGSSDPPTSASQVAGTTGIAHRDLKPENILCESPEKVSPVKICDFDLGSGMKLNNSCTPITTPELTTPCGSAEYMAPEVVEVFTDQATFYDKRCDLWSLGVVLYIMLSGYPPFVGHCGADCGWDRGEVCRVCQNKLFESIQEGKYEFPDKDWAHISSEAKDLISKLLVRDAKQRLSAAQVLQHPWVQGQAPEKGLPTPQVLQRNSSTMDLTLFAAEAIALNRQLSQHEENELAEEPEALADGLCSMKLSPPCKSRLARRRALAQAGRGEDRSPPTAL
MNK1 assay: 5-20 mU of MNK1 (diluted in 50 mM Tris (pH 7.5), 0.1 mM EGTA, 1 mg/ml BSA, 0.1%, b-Mercaptoethanol) was assayed against substrate peptide (eIF4E) in a final volume of 25.5 μl containing 50 mM Tris (pH 7.5), 0.1 mM EGTA, 0.1%, b-Mercaptoethanol, 0.5 mg/ml substrate peptide, 10 mM magnesium acetate and 0.05 mM [33P-g-ATP](500-1000 cpm/pmole) and incubated for 30 mins at room temperature. Assays were stopped by addition of 5 μl of 0.5M (3%) orthophosphoric acid. Assays were harvested onto P81 Unifilter plates using a wash buffer of 50 mM orthophosphoric acid.

Another experiment addresses T2, PDK1 (Homo sapiens, UniProt O15530).
T2 sequence (O15530 1-556): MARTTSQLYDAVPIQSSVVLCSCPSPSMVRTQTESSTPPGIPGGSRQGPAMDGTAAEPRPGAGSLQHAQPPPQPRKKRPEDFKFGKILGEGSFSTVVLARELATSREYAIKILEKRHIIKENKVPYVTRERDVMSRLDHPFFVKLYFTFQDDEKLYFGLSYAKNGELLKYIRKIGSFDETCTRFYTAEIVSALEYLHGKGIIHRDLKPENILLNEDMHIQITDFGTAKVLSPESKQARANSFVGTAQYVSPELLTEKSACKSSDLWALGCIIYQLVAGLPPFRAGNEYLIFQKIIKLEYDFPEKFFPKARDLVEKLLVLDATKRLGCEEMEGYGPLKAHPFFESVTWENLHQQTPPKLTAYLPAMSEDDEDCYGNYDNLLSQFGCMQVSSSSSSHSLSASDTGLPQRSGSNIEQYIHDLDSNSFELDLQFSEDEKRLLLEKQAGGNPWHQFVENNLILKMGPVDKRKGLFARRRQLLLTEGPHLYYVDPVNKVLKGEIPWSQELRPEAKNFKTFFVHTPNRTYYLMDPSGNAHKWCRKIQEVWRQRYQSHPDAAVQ
Kind of experiment: Kinase screen: PDK1 assay. How it is done: as §1, §2
(50-1000 cpm/pmole) and incubated for 30 min at room temperature Assays were stopped by addition of 5 μl of 0.5 M (3%) orthophosphoric acid and then harvested onto P81 Unifilter plates with a wash buffer of 50 mM orthophosphoric acid.

The target in a further experiment is T3, IKKβ (Homo sapiens, UniProt O14920).
T3 sequence (O14920 1-756): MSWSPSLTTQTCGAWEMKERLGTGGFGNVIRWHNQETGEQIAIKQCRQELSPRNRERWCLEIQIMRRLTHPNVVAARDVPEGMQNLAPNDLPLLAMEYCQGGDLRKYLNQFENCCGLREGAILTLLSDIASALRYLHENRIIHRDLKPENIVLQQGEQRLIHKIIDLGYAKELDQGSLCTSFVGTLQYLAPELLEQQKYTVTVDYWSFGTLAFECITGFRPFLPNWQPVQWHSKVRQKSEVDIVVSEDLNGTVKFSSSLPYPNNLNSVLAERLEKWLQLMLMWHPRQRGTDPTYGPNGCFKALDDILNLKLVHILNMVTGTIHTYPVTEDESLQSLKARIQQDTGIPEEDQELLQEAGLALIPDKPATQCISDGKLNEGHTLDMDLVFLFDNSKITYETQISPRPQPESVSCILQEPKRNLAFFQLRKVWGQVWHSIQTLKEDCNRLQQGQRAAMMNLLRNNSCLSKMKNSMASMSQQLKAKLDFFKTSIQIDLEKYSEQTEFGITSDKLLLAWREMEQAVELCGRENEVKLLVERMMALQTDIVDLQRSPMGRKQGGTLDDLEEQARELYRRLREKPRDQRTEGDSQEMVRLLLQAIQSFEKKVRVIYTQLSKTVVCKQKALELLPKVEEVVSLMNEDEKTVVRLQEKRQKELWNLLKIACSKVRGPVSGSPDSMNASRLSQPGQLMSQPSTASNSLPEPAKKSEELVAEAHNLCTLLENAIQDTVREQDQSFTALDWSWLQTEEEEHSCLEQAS
Description: Kinase screen: IKKb assay. On the procedure: as §1, §2
IKKb assay: 5-20 mU of IKKb (diluted in 50 mM Tris (pH 7.5), 0.1 mM EGTA, 1 mg/ml BSA, 0.1%, b-Mercaptoethanol) was assayed against substrate peptide ([…]) (SEQ ID NO: 20) in a final volume of 25.5 μl containing 50 mM Tris (pH 7.5), 0.1 mM EGTA, 0.1%, b-Mercaptoethanol, 300 μM substrate peptide, 10 mM magnesium acetate and 0.005 mM [33P-g-ATP] (500-1000 cpm/pmole) and incubated for 30 mins at room temperature. Assays were stopped by addition of 5 µl of 0.5M (3%) orthophosphoric acid. Assays were harvested onto P81 Unifilter plates using a wash buffer of 50 mM orthophosphoric acid.

The mark [1] stands for this setting: 0.5 h, 10 micromolar compound, read-out: mean activity remaining (as a percentage of the original activity), PKBb.
Where [2] appears, read: 10 micromolar compound, read-out: mean activity remaining (as a percentage of the original activity), MNK1.
Setting [3] is: 10 micromolar compound, read-out: mean activity remaining (as a percentage of the original activity), PDK1.
Where [4] appears, read: 10 micromolar compound, read-out: mean activity remaining (as a percentage of the original activity), IKKb.

T1 sequence (P31751 120-481 S474D limits assumed, species assumed): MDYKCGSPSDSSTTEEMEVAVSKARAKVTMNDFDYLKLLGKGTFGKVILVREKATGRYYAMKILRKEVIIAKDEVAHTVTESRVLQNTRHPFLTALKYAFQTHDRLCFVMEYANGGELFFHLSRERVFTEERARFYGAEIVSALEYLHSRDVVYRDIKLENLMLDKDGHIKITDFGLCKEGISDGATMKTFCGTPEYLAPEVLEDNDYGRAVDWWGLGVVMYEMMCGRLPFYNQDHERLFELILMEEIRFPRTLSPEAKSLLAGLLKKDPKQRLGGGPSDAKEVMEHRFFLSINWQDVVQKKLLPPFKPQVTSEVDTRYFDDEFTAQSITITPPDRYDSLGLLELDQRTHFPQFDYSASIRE

For the compound `CC(C)c1cnn2c(NCc3ccccc3F)cc(NCCCCCN)nc12` [ICEC-0232], the “mean activity remaining (as a percentage of the original activity), PKBb” value at PKBβ (10 micromolar compound) is reported as 76%. Also, at MNK1 (10 micromolar compound), the “mean activity remaining (as a percentage of the original activity), MNK1” value was found to be 97%. In addition, on PDK1 (10 micromolar compound), the “mean activity remaining (as a percentage of the original activity), PDK1” value was found to be 101%. Besides, the “mean activity remaining (as a percentage of the original activity), IKKb” value on IKKβ (10 micromolar compound) was 84%.
As a reminder, the remaining activity is the signal under treatment as a percentage of the control signal. `CC[C@H](CO)Nc1cc(NCc2ccccc2)n2ncc(C(C)C)c2n1` [ICEC0067]: the remaining activity at 10 µM on PKBβ (setting [1]) is 102%; at MNK1 (setting [2]) it was 86%; on PDK1 (setting [3]), 87%; at IKKβ (setting [4]) it was 84%.
In the case of `CC(C)c1cnn2c(NCc3ccccc3)cc(NCCCCCCCN)nc12` [BS-181], the remaining activity at 10 µM on PKBβ (PKBβ, 10 μM, read-out: Mean Remaining Enzyme Activity (%)) worked out at 81%; on MNK1 (MNK1, 10 μM, read-out: Mean Remaining Enzyme Activity (%)), 105%; at PDK1 (PDK1, 10 μM, read-out: Mean Remaining Enzyme Activity (%)) it was 80%; on IKKβ (IKKβ, 10 μM, read-out: Mean Remaining Enzyme Activity (%)), 96%.
As for `C=C[C@H](CO)Nc1cc(NCc2ccccc2)n2ncc(C(C)C)c2n1` [ICEC0065], the remaining activity at 10 µM at PKBβ (setting [1]) worked out at 109%; on MNK1 (setting [2]), 90%; on PDK1 (setting [3]), 78%; at IKKβ (setting [4]), 81%.
For the compound `CC(C)c1cnn2c(NCc3ccccc3)cc(N[C@@H](CO)[C@H](O)CO)nc12` [ICEC0318, (3S)-3-(7-(Benzylamino)-3-isopropylpyrazolo[1,5-a]pyrimidin-5-ylamino)butane-1,2,4-triol], the remaining activity at 10 µM on PKBβ (setting [1]) came out at 105%; at MNK1 (setting [2]), 98%; at PDK1 (setting [3]) it was 84%; on IKKβ (setting [4]) it was 80%.
